System: NPY2R‐neurons
Test: Ca^2+ imaging, NPY2R‐neurons (iPSC‐derived)
Assay type: cell-based, human
Protocol: Before initiating differentiation, the iPSCs (1–2 × 10^5 cells·cm^−2; Cell lines and cell culture section) were transferred to 6‐well plates (Corning, Inc., Corning, NY, USA) coated with 2‐methacryloyloxyethyl phosphorylcholine (MPC) polymer (Lipidure CM5206E; NOF, Tokyo, Japan). The cells were maintained in mTeSR1 cGMP medium containing 10 μM Y‐27632 (Fujifilm Wako Pure Chemical Industries) for 2 or 3 days to form embryoid body (EBs) in a rotary shaker at 95 r.p.m. (OS‐762RC; Optime, Tokyo, Japan). Subsequently, iPSCs were differentiated into neural crest cells (NCCs), as previously reported. Briefly, NCCs were induced from Ebs using knockout serum replacement (KSR) medium and N2 medium with graded addition of nerve growth factors and signaling factors. KSR medium was composed of DMEM‐F12 (Fujifilm Wako Pure Chemical Industries), 20% KSR (Thermo Fisher Scientific), 1% NEAA, 1% monothioglycerol (Fujifilm Wako Pure Chemical Industries), and 1% P/S. N2 medium consisted of DMEM‐F12, 1% N2 supplement (Fujifilm Wako Pure Chemical Industries), 1% NEAA, and 1% P/S. When EB formation was considered day 0 of induction, the medium was changed at days 2, 5, 7, 9, and 12. […]

PYY: PYY (4400‐v; Peptide Institute, Inc.); PYY (3–36) in Ca2+ imaging
Intracellular Ca^2+ concentration (traces) (100 nM PYY (PYY (3–36) in method), NPY2R‐neurons day 35, Fluo‐8 AM, Fig. S5C): increased intracellular Ca^2+ concentration | Fluorescence intensity (ΔF stim/F 0) (PYY, 10 nM per Fig. 6 legend (100 nM in text and Fig. S5C), day 35, n = 10, Student's t‐test vs. 0 nM, Fig. 6E): significantly increased fluorescence intensity

Reference: paper PMC10761937, “Functional engineering of human iPSC‐derived parasympathetic neurons enhances responsiveness to gastrointestinal hormones” (FEBS Open Bio, 2023)
